# Laboratory results reported in US20260166084A1, “NOVEL DRUG-INDUCIBLE DEGRADATION TAGS” (THE INSTITUTE OF CANCER RESEARCH: ROYAL CANCER HOSPITAL, priority 2022, published 2026).
# What was measured:
# [1] = test system: TE9-28-Z CAR; test: IMiD induced degradation and re-expression of tagged CAR in primary human T cells; type: cell-based
# From the text: The re-expression of degraded chimeric antigen receptors following removal of the degrader drug is important for the CAR-T cell to be able to toggle between active and resting states, thereby allowing additional therapeutic manipulation and fine-tuning.
# To evaluate the general functionality of the TE9-28Z-iTAG2 anti-B7H3 CAR-T construct when expressed from a different viral vector, driven by alternate promoter, the construct was cloned into third generation lentivector pCLL2 backbone and viral supernatant was generated by transient transfection of 293T cells, with virus pseudotyped with VSV-G. Two versions of the TE9-28Z-iTAG2 sequence were evaluated in this format, which were with and without codon optimisation and removal of cloning scars. There are no differences in amino acid sequence of iTAG2 between original (construct 3) and codon optimised (construct 4) versions (FIG. 16 a and b). […] The log reduction in CAR expression as expressed as geometric median fluorescence intensity (gMFI) was highly consistent. […]
# PBMC-derived T cells from 2 healthy donor blood cones were cultured following CD56 depletion (day0) which was performed using Miltenyi CD56 depletion beads and magnetic negative selection using LD columns according to manufacturer's instructions. […] Transduction efficiency was assessed 4 days post transduction by flow cytometry staining for RQR8 and CAR expression.
# CAR expression in PBMC-derived T cells following degradation with 10, 1, 0.1, 0.01, 0.001 or 0 uM iberdomide after 24 hours, was assessed by flow cytometry. […] Supernatant was harvested, and IL-2 and IFNγ levels determined by ELISA.
# CAR surface expression for transduction efficiency and degradation experiments in primary cells and cell lines was quantified using his-tagged B7H3 protein in combination with anti his-tagged fluorescent antibody (J095G45, BioLegend), and directly fluorescently labelled anti CD34 antibody (QBEnd10, R&D), using LSR2 cytometer. […]
# [2] = test system: iTAG2 and DCD23-tagged chimeric antigen receptor (TE9-28-Z); test: IMiD induced degradation of tagged CAR in transduced Jurkat cells; type: cell-based, human
# Procedure: (§1) CAR expression in PBMC-derived T cells following degradation with 10, 1, 0.1, 0.01, 0.001 or 0 uM iberdomide after 24 hours, was assessed by flow cytometry. To assess CAR functionality+/−degrader tag, transduced T cells were cultured 24 hours with SUPT1+/−B7H3 at a 1:1 ratio. Supernatant was harvested, and IL-2 and IFNγ levels determined by ELISA.
# (§2) CAR surface expression for transduction efficiency and degradation experiments in primary cells and cell lines was quantified using his-tagged B7H3 protein in combination with anti his-tagged fluorescent antibody (J095G45, BioLegend), and directly fluorescently labelled anti CD34 antibody (QBEnd10, R&D), using LSR2 cytometer. Analysis used Flo-Jo software.
# [3] = molecular target: T1, complexes formed between CRBN/DDB1 and IMiDs (Homo sapiens, UniProt Q96SW2); test: Aiolos peptide-based TR-FRET assay; type: binding; conditions: IMiDs at 10 μM
# T1 construct: 5 nM WT full length CRBN/DDB1 complex; made in house
# T1 sequence (Q96SW2 whole entry): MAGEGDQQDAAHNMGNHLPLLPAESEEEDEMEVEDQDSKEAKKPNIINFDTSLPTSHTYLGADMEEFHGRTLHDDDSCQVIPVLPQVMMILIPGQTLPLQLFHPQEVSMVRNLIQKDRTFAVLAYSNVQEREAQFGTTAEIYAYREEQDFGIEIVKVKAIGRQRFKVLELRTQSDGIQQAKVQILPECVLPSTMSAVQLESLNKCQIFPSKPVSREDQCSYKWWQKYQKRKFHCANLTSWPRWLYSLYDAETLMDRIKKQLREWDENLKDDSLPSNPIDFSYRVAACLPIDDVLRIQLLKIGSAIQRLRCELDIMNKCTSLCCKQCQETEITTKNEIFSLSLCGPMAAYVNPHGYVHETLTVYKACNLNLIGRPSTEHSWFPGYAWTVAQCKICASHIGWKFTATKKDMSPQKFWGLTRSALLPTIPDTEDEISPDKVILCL
# T1 sequence (Q16531 whole entry partner): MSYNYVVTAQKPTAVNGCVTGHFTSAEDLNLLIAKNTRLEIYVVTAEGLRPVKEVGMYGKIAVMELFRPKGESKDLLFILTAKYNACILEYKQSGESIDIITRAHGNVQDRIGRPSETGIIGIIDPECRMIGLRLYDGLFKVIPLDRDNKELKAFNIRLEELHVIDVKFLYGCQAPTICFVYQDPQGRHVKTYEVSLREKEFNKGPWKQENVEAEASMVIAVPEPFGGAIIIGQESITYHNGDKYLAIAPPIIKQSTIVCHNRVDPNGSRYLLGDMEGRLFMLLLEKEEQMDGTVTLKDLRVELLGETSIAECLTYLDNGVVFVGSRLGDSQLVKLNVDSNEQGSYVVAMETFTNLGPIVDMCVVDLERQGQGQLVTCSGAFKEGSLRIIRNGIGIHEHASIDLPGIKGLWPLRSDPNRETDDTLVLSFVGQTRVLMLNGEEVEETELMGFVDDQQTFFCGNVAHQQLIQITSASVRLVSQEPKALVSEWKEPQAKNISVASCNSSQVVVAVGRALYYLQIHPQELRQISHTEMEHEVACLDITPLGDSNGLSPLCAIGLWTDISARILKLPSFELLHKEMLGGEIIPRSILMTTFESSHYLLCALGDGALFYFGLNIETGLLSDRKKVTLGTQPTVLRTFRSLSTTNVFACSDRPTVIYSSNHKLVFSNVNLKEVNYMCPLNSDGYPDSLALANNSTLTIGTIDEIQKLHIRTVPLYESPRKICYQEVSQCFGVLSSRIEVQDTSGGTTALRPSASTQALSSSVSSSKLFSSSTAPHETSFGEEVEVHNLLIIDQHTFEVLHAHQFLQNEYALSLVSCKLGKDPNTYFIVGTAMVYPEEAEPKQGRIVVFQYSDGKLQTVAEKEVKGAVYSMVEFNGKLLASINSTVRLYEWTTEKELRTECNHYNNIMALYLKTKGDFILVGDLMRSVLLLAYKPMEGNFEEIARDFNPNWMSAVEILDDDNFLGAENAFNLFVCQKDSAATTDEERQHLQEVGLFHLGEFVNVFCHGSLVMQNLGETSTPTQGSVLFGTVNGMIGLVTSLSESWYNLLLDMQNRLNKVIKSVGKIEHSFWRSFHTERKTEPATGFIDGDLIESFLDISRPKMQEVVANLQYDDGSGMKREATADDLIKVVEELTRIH
# Procedure: A schematic representation of the Aiolos peptide-based time resolved-Förster resonance energy transfer (TR-FRET) assay is presented in FIG. 11. […] The results are presented in FIG. 12, including the IC50s calculated from the TR-FRET curves. Overall, the IC50s obtained for iTAG2 were higher than those obtained for iTAG1 with about a 10-fold difference.
# All TR-FRET assays were ran in Black 384-well ProxiPlate Plus (Perkin-Elmer, USA), in a buffer containing 20 mM HEPES pH 8.0, 150 mM NaCl, 0.5 mM TCEP, 0.05% Tween 20 and 0.05% BSA, with a final assay volume of 10 μL. An Echo E550 (Beckman Coulter, USA) acoustic liquid dispenser was used to create final concentration ranges from 82 μM down to 2.05 nM for iTAG1 and 27 μM down to 0.68 nM for iTAG2. Final concentrations of 5 nM WT full length CRBN/DDB1 complex, 750 nM Sulfo-Cy5 fluorescent Aiolos-based peptidic probe (Cambridge Research Biochemicals, UK), 750 nM Zn(OAc)^2 and 0.5 nM MAb Anti-6HIS-Terbium cryptate Gold (Cisbio, France) were added with a Tempest liquid handler (Formulatrix, USA). Finally, IMiDs were added to a final concentration of 10 μM with the Echo. Plates were sealed, centrifuged at 200 g for 1 min and stored overnight at 4° C. The TR-FRET signals were read using a PHERAstar FSX plate reader (BMG Labtech, Germany). Final signal was measured as the ratio: […]
# [4] = test system: anti-B7H3 chimeric antigen receptor (TE9); test: Cell surface expression of tagged CAR in transduced Jurkat and 293T cells by flow cytometry; type: cell-based, human; conditions: for surface expression of tagged CARs: transduced Jurkat cells, 41BB and CD28 versions of TE9 CAR, FIG. 10
# Procedure: Initial experiments evaluated expression and degradation in human Jurat T cell leukaemia cells or human 293T cells, which were stably transduced with untagged, iTAG1(DCD23)-tagged, and iTAG2-tagged anti-B7H3 CAR-T cells. Here the relative expression of the CAR and the CD34 marker gene are determined by direct staining and evaluation by flow cytometry.
# Jurkat and 293T cell lines were grown in DMEM with 10% fetal calf serum and transduced with constructs containing CAR+/−degrader tag. Transduction efficiency was analysed 72 hours post transduction by flow cytometry, staining for the CD34 epitope encoded by the RQR8 gene.
# as §2
# [5] = test system: HMEC cells; test: Nuclear localisation by immunofluorescence in HMEC; type: cell-based, human; conditions: fluorescence microscopy, FIG. 3b and 13
# Procedure: To determine localisation of “superdegron” which has a degree of homology with iTAG1, the inventors cloned superdegron into the expression vector to replace iTAG1 as the degron fused with GFP.
# HMEC cells were seeded in glass bottom 96-well plates (Perkin Elmer) at a 1000 cells/well and treated with 1 μg/ml DOX for 24 h to induce construct. Cells were fixed using 4% paraformaldehyde in PBS solution for 15 min at 37° C. and permeabilised with 0.05% Titon-X-100 detergent for 10 min at room temperature. Prior to proceeding to cell imaging, the cells were incubated for a min with 1 μg/ml DAPI (ThermoFisher Scientific) to stain the cell nuclei. Cells were visualised on the Zeiss Axio Vert.A1 FL-LED inverted epifluorescence microscope (Zeiss) and images were captured using the ZEN Blue software (Zeiss).
# [6] = test system: degron containing domains (DCDs); test: Degradation matrix of DCD tags with IMiD/CELMoD panel by flow cytometry; type: cell-based; conditions: panel of IMiD/CELMoD small molecules, FIG. 1
# From the text: FIG. 1: Experimental evaluation of the DCD tags. (a) Heat map summary of the degradation matrix data of all the DCDs tested in flow cytometry experiments. Normalized values were represented in the Log 2 Fold Change relative to the DMSO control. […] (b) Representation of iTAG1-DCD23 (60 aa). The 2 Cys and 2 His from the C2H2 zinc finger motif are highlighted in light grey. The crucial Glycine in the b-hairpin loop degron is highlighted in bold dark grey.
# To address the limitations of the currently available protein modulation tools, the inventors developed a novel and robust system for targeted protein degradation by exploiting the fusion of an IMiD/CeLMOD recognition sequence to a protein of interest. […] This 60 amino acid sequence is referred to as iTAG1 (DCD23) herein.
# Construct expression was induced by treating cells with 1 μg/ml DOX for 24 h. The cells were treated with IMiDs/CELMoDs at concentrations and time-points indicated for each experimental setting. Cells were collected, on ice, in sterile 5 ml polystyrene round-bottom tubes. DAPI (4′,6-diamidino-2-phenylindole; ThermoFisher Scientific) was added to the cell suspension at a ratio of 1:1000, as a marker for cell viability. The EGFP signal was measured on the BD LSR II flow cytometer (BD Biosciences). Further processing of the results was performed using FlowJo 10 Software (FlowJo).
# [7] = test system: SupT1 cells transduced to express human B7H3; test: CAR functionality: cytokine ELISA after co-culture with SupT1-B7H3 targets; type: cell-based; conditions: primary human T cells, 1:1 with SupT1-B7H3, overnight, ELISA, FIG. 9
# From the text: To evaluate whether the brighter CAR expression of iTAG2 tagged CAR compared with DCD23-tagged CAR translated into greater effector function, the respective CAR-T populations from the two independent donors were co-cultured overnight with human SupT1 leukaemia target cells isogenic for the target antigen B7H3. Wild type SupT1 have no detectable B7H3 expression. Following overnight culture of T cells with the targets, culture supernatant was harvested and evaluated for inflammatory cytokines interferon gamma and Interleukin-2 by ELISA (FIG. 9).
# as §1
Compound,"optimal IMiD concentration to mediate CAR downregulation upon treatment and re-upregulation upon withdrawal ([1]; TE9-iTAG2 CAR-T, overnight treatment, wash, 24 h rest, FIG. 15)","CAR expression after drug treatment ([1]; primary human T cells, 10 uM iberdomide for 24 hours, FIG. 8)","drug concentration at which nearly maximal downregulation is observed ([2]; iTAG1(DCD23) and iTAG2 tagged CAR, FIG. 7)","potency for degradation among lenalidomide, pomalidomide and iberdomide ([2]; tagged CAR, FIG. 7)","relative affinity of iTAG1 and iTAG2 for CRBN/DDB1-IMiD complex, order of IMiDs [3]",surface expression of tagged CARs [4],nuclear accumulation / localisation of tagged EGFP/GFP [5],drug-induced degradation of DCD tag [6],reduced IL-2 secretion compared with iTAG2 fusion protein [7],"reduced effector function compared with iTAG2 fusion protein, interferon gamma secretion [7]","time of drug treatment at which maximal reduction of surface expression is detectable ([2]; lenalidomide, pomalidomide, iberdomide)","cell surface expression of tagged CAR relative to CD34 marker ([4]; transduced 293T and Jurkat cells, FIG. 6)"
"O=C1CC[C@H](N2Cc3c(OCc4ccc(CN5CCOCC5)cc4)cccc3C2=O)C(=O)N1 [Iberdomide/ CC220, Iberdomide]",0.01 µM,near complete loss of expression of the brightly expressed CAR population,0.01 µM,highest potency,tightest binding,–,–,–,–,–,–,–
"SuperDegron: prototypic zinc finger-based 60 amino acid degron, hybrid of ZFP91 and IKZF3 (WO2019089592) (FNVLMVHKRSHTGERPLQCEICGFTCRQKGNLLRHIKLHTGEKPFKCHLCNYACQRRDAL; SuperDegron) [reference compound]",–,–,–,–,–,weak surface expression,strong nuclear localisation,–,–,–,–,–
iTAG1: 60 amino acid degron tag based on a chimeric sequence of Ikaros and ZFP91 (PNVLMVHKRSHTGERPLQCEICGFTCRQKGNLLRHIKLHSGEKPFKCHLCNYACRRRDAL),–,–,–,–,–,weak surface expression,predominant nuclear localisation,induces acute target degradation in vitro and in vivo,approximately 30 fold,approximately 5 fold,4 h,relatively poor cell surface expression
